Entries after “also recorded” stand apart in the source; their conditions may differ. Marks after values point to notes of the source that are not given here.
Legend:
[1] = tested on: DOHH2 human tumor xenografts; settings: for Median Survival Time: CAS024 10 μg IV days 0, 4, 8, Bendamustine 10 mg/kg IP days 0, 2, 4, 7, 9, alone or combined; for clinical signs of toxicity: CAS024 10 μg IV, Bendamustine 10 mg/kg IP
Description: Establishment of tumor xenografts and sorting into treatment groups. […] The tumor-bearing mice were sorted into five groups with equivalent mean tumor volumes (n=15 per group; 3 cages of 5 mice for each group).
In vivo treatment. Groups of mice were treated with an injection of 0.2 mL of PBS containing 10 μg huIgG (days 0, 4, 8 IV), 10 μg CAS024 (days 0, 4, 8 IV), 10 mg/kg Bendamustine (0, 2, 4, 7, 9 IP), or 10 μg CAS024 (days 0, 4, 8 IV) AND 10 mg/kg Bendamustine (0, 2, 4, 7, 9 IP).
Monitoring and endpoints. Mice were monitored daily by visual inspection. […] Tumor volumes were calculated as described above.

[2] = SMIP expression in transfected CHO cells, supernatants titered with Protein A sensor; parameters: species or system Chinese Hamster Ovary (CHO); settings: shake flasks, culture supernatants
Description: CAS-024 and other CD37-specific binding SMIP molecules were cloned into a Chinese Hamster Ovary (CHO) mammalian cell expression system. Transfected CHO cells that produced the SMIP molecules were cultured in shake flasks and harvested cell culture supernatants were titered using Octec Q Protein A sensor.

CD37 on Ramos cells = molecular target: T1, CD37 on Ramos cells (Homo sapiens, UniProt P11049); assay: FMAT competition assay against FMAT Blue labeled CAS-006 for binding to Ramos cells
T1 construct: endogenous in cells; host or cells: Ramos cells
T1 sequence (P11049 1-281): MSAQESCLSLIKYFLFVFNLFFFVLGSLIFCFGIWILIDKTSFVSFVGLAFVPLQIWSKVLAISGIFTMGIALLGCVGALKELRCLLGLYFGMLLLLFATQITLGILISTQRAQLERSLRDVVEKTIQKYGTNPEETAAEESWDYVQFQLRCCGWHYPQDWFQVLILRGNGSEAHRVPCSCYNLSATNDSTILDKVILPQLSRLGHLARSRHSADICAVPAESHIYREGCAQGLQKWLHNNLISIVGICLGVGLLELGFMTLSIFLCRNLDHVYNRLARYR
Source text: A competition assay was used to compare the binding affinity of different anti-CD37 specific small modular immunopharmaceutical (SMIP) molecules to CD-37 found on Ramos cells (a B-lymphoblastoid cell line derived from a Burkitt lymphoma). An SEC purified chimeric anti-CD37 SMIP molecule (CAS-006, SEQ ID NO:247) was labeled with the FMAT Blue® fluorescence dye (Applied Biosystems) and used as the standard to compete with purified unlabeled chimeric anti-CD37 SMIP molecule (positive control) and purified unlabeled humanized anti-CD37 SMIP test molecules. […] The plates were incubated at room temperature for 30 min and read on an 8200 Cellular Detection System (Applied Biosystems) gated for middle cell size and low signal.
A competition assay as described in Example 4 was used to compare the binding affinity of different mouse-human hybrid anti-CD37 SMIP molecules compared to CAS-024 binding to Ramos cells. An SEC purified chimeric anti-CD37 SMIP molecule (CAS-006, SEQ ID NO:247) was labeled with the FMAT Blue® fluorescence dye (Applied Biosystems) and used as the standard to compete with purified unlabeled chimeric anti-CD37 SMIP molecule (CAS-006, positive control) and purified unlabeled humanized anti-CD37 SMIP test molecules—CAS-002 (SEQ ID NO:48), CAS-003 (SEQ ID NO:52), CAS-014 (SEQ ID NO:251), CAS-017 (SEQ ID NO:252), and CAS-024 (SEQ ID NO:253).

[3] = SMIP expression in transfected HEK293 cells, day 7 supernatants titered with Protein A sensor; settings: supernatants day 7
Source text: CAS-024 and other CD37-specific binding SMIP molecules were produced by recombinant DNA technology and transfected into HEK293 cells for 7 days. Cell culture supernatants were harvested on day 7 and titered using Octec Q Protein A sensor.

[4] = tested on: human tumor (DOHH2) xenograft; assay: Single agent efficacy in established DOHH2 xenograft model in SCID mice; format: in vivo; settings: for Death (other than for Tumor Size Sacrifice) / Median Survival Time: 200 μg IP days 0, 4, 8, cumulative 600 μg; for mean tumor volume compared with human IgG treated group: day 4 through day 11
Description: Mice were monitored daily by visual inspection. […] Tumor volumes were calculated as described above. Tumor volumes on the last day that all mice were alive in each group were also expressed in terms of tumor volumes relative to day 0, using the formula: Relative tumor volume on day of interest=(volume on day of interest−volume on day 0)volume on day 0

[5] = tested on: human tumor (DOHH2) xenograft; assay: Dose response in established subcutaneous DOHH2 xenograft model in SCID mice; format: in vivo
Description: Mice were monitored daily by visual inspection. […] Tumor volumes were calculated as described above.

CD37 on BJAB cells = molecular target: T2, CD37 on BJAB cells (Homo sapiens, UniProt P11049); assay: Competitive binding / cross blocking of FITC-conjugated anti-CD37 reagents on BJAB cells; settings: unlabeled blocking reagent
T2 construct: endogenous in cells; host or cells: BJAB cells
T2 sequence (P11049 1-281): T1 sequence (P11049 1-281)
Description: FITC labeled antibody conjugates were titrated from 10 ng/mL to 10 μg/mL in an initial binding study to determine the optimal amount to use in the blocking studies. The level chosen was just below saturating amounts, and was kept constant in the subsequent assays, while levels of blocking antibody were increased over a 10-fold range. Data were plotted as percent of maximal binding versus concentration of blocking antibody, so that higher levels indicate less efficient blocking, while lower levels indicate more efficient blocking activity.
For competitive binding assays, 2.5×10^5 BJAB cells were incubated in 96-well V-bottom plates in staining media (PBS with 2% mouse sera) with the FITC-conjugated anti-CD37 mAbs at 1.25 μg/mL in the presence of unconjugated anti-CD37 MAb at the indicated concentrations (2.5, 1.25, 0.6, or 0.3 μg/ml) or staining media for 45 minutes on ice in the dark. Blocking antibodies and FITC labeled antibody conjugates were added to reactions prior to addition of cells. The cells were then washed […] with PBS and fixed with 1% paraformaldehyde (USB, Cleveland, Ohio). The treated cells were analyzed by flow cytometry using a FACsCalibur instrument and CellQuest software (BD Biosciences, San Jose, Calif.). […]

[6] = 3 μg IP days 0, 4, 8, cumulative 9 μg
[7] = 10 μg IP days 0, 4, 8, cumulative 30 μg
[8] = 30 μg IP days 0, 4, 8, cumulative 90 μg
[9] = 100 μg IP days 0, 4, 8, cumulative 300 μg

G28-1 VH (M99F, Y102S)-VL (T25A) scFv (SSC-P) H WCH2 WCH3 [CAS-024]
Median Survival Time [1]: 17^b Days | clinical signs of toxicity [1]: No clinical signs of toxicity | Protein Titer Range [2]: 500 to 650 µg/mL | greater affinity for CD37 than humanized VLVH SMIP molecules with 16 amino acid linker (CD37 on Ramos cells; Ramos cells): ≤ 4 fold | affinity for CD37 compared with parent chimeric CAS-006 (CD37 on Ramos cells; competition with labeled CAS-006, Ramos cells): substantially the same affinity; also recorded: same binding affinity | Protein Titer [3]: 12.7 µg/mL | Death (other than for Tumor Size Sacrifice) [4]: 1/15^f | Median Survival Time [4]: Undefined^d, e | mean tumor volume compared with human IgG treated group [4]: significantly lower | Death (Not Due to Large Tumor Volume) [5, 6]: 0/14 | Median Survival Time [5, 6]: 19 days | Death (Not Due to Large Tumor Volume) [5, 7]: 0/14 | Median Survival Time [5, 7]: 28 days | Death (Not Due to Large Tumor Volume) [5, 8]: 0/14 | Median Survival Time [5, 8]: 35 days | Death (Not Due to Large Tumor Volume) [5, 9]: 1/14^h | Median Survival Time [5, 9]: Undefined | Death (Not Due to Large Tumor Volume) ([5]; 200 μg IP days 0, 4, 8, cumulative 600 μg): 0/14 | effect on the growth of DOHH2 tumors ([5]; 3 to 200 μg IP days 0, 4, 8): dose-dependent inhibitory effect

CAS-006: chimeric anti-CD37 SMIP protein (mVLmVH) with variable regions from mouse mAb G28-1, SEQ ID NO:247
blocking activity (inhibition of binding of FITC-conjugated anti-CD37) (CD37 on BJAB cells): highest level of blocking activity | Protein Titer [3]: 9.3 µg/mL

Cn1c(CCCC(=O)O)nc2cc(N(CCCl)CCCl)ccc21 [Bendamustine, 4-[5-[Bis(2-chloroethyl)amino]-1-methylbenzimidazol-2-yl]butanoic acid, reference compound]
Median Survival Time [1]: 17 days | clinical signs of toxicity [1]: scruffy coats and diarrhea

Rituxan: anti-CD20 treatment used as single agent comparator [reference compound]
Death (other than for Tumor Size Sacrifice) [4]: 0/15 | Median Survival Time [4]: 43 days | mean tumor volume compared with human IgG treated group [4]: significantly lower

Source: patent US8333966B2, “CD37 immunotherapeutics and uses thereof” (Emergent Product Development Seattle, LLC, priority 2008, dated 2012)
